Source: BindingDB's records for doi:10.1007/s10822-022-00478-x (Roche Innovation Center Basel, F. Hoffmann-La Roche Ltd., 2022)

These compounds were tested against cAMP and cAMP-inhibited cGMP 3',5'-cyclic phosphodiesterase 10A (Homo sapiens, UniProt Q9Y233) (assay: PDE10A assay).
Summary of the method: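 Scintillation proximity readout of [3H]cGMP hydrolysis (50 nM final substrate, 15 min) by 2 ng/well human PDE10A after 15 min compound preincubation at RT, pH 7.5 with MgCl2. Four-parameter logistic fit gave IC50, reported as pIC50.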

IC50	Structure (SMILES)
924 nM	Cc1cc(C)n2nc(/C=C/c3nc(N(C)C)nn3C)nc2n1 [Roche-Dataset for PDE10A, Compound 1144]
4770 nM	Cc1ncc(C)n2nc(CCc3nc(N4CCN(C(c5ccccc5)c5ccccc5)C4=O)nn3C)nc12 [Roche-Dataset for PDE10A, Compound 1145]
692 nM	Cn1ncc(C(=O)N2CCC2)c1C(=O)Nc1cc2ccccn2n1 [Roche-Dataset for PDE10A, Compound 1147]
2680 nM	Cc1cc(NC(=O)c2c(C(=O)N3CCC3)cnn2C)n[nH]1 [Roche-Dataset for PDE10A, Compound 1149]
3930 nM	Cc1ncc(C)n2nc(CCc3nc(N)nn3C)nc12 [Roche-Dataset for PDE10A, Compound 1150]
1340 nM	Cn1ncc(C(=O)O)c1C(=O)Nc1ccc2nc(N3CCOCC3)nn2c1 [Roche-Dataset for PDE10A, Compound 1151]
4550 nM	CNC(=O)c1c(NC(=O)c2nc(Cl)c(OC)nc2Nc2cncnc2)cnn1C [Roche-Dataset for PDE10A, Compound 1152]
1520 nM	Cn1ncc(C(=O)NCc2nc3ccccc3[nH]2)c1C(=O)Nc1ccn2cc(-c3ccccc3)nc2n1 [Roche-Dataset for PDE10A, Compound 1153]
1040 nM	O=C(NC1CCCCCC1)c1nc(C2CC2)cnc1Nc1cncnc1 [Roche-Dataset for PDE10A, Compound 1154]
3130 nM	Cn1ncc(C(=O)N2CCC2)c1C(=O)Nc1cc[nH]n1 [Roche-Dataset for PDE10A, Compound 1155]
2760 nM	Cn1ncc(C(=O)NCc2cc(C(F)(F)F)ccn2)c1C(=O)Nc1ccn2cc(-c3ccccc3)nc2n1 [Roche-Dataset for PDE10A, Compound 1156]
4780 nM	Cn1ncc(C(=O)NCc2cccc(C(F)(F)F)n2)c1C(=O)Nc1ccn2cc(-c3ccccc3)nc2n1 [Roche-Dataset for PDE10A, Compound 1157]
10000 nM	Cc1cc(C)n2nc(/C=C/c3nc(Br)nn3C)nc2n1 [Roche-Dataset for PDE10A, Compound 1158]
10000 nM	Cc1cc(C)n2nc(CCc3ncnn3C)nc2n1 [Roche-Dataset for PDE10A, Compound 1159]
4290 nM	Cc1cc(C)c2c(NC(=O)c3c(C(=O)N4CCC4)cnn3C)nn(C)c2n1 [Roche-Dataset for PDE10A, Compound 1160]
9.7 nM	O=C(Nc1ccn(-c2ccncc2)n1)c1nc(C2CC2)ccc1Nc1cncnc1 [US8470820, 7]
3.23 nM	Cn1nc(-c2ccccn2)cc1NC(=O)c1nc(C2CC2)ccc1Nc1cncnc1 [US8470820, 8]
2.25 nM	O=C(Nc1cc(-c2ccccn2)nn1CCO)c1nc(C2CC2)ccc1Nc1cncnc1 [US8470820, 10]
5.24 nM	COCc1ccc(Nc2cncnc2)c(C(=O)Nc2cc(-c3ccccn3)nn2CCO)n1 [US8470820, 11]
1.05 nM	CN(C)CCn1nc(-c2ccccn2)cc1NC(=O)c1nc(C2CC2)ccc1Nc1cncnc1 [US8470820, 12]
3.74 nM	CCOC(=O)Cn1nc(-c2ccccn2)cc1NC(=O)c1nc(C2CC2)ccc1Nc1cncnc1 [US8470820, 15]
1.53 nM	O=C(Nc1cc(-c2ccccn2)nn1CCN1CCOCC1)c1nc(C2CC2)ccc1Nc1cncnc1 [US8470820, 16]
4.91 nM	O=C(Nc1cc(-c2ccccn2)nn1CCc1ccccc1)c1nc(C2CC2)ccc1Nc1cncnc1 [US8470820, 17]
2.54 nM	O=C(Nc1cc(-c2ccccn2)nn1CC(F)(F)F)c1nc(C2CC2)ccc1Nc1cncnc1 [US8470820, 22]
1.68 nM	CCCn1nc(-c2ccccn2)cc1NC(=O)c1nc(C2CC2)ccc1Nc1cncnc1 [US8470820, 23]
1.41 nM	O=C(Nc1cc(-c2cccc(Cl)n2)nn1CCO)c1nc(C2CC2)ccc1Nc1cncnc1 [US8470820, 24]
0.09 nM	O=C(Nc1cc(-c2ccc3ccccc3n2)nn1CCO)c1nc(C2CC2)ccc1Nc1cncnc1 [US8470820, 25]
1.59 nM	O=C(Nc1cc(-c2ccc(Cl)cn2)nn1CCO)c1nc(C2CC2)ccc1Nc1cncnc1 [US8470820, 26]
